Data as given in patent US12565520B2, “Chemically-stabilized allosteric modulators of leucine-rich repeat kinase 2 (LRRK2)” (UNIVERSITY OF GEORGIA RESEARCH FOUNDATION, INC., priority 2020, dated 2026).
Entries after “also recorded” stand apart in the source; their conditions may differ.

How the values were obtained:
[1] = tested on: LRRK2 dimers (WT/WT, WT/G2019S, G2019S/G2019S); experiment: Proximity biotinylation ELISA-based LRRK2 dimerization assay in cells; format: cell-based; settings: for LRRK2 dimerization in cells (FIG. 8): 0.1, 1 and 10 μM fluorescently labeled peptide; for LRRK2 dimerization, wild-type homodimers and wild-type/G2019S heterodimers: HEK293 cells
LRRK2 dimers (WT/WT, WT/G2019S, G2019S/G2019S), sequence (Q5S007 1328-1878 limits assumed, stated change not applied): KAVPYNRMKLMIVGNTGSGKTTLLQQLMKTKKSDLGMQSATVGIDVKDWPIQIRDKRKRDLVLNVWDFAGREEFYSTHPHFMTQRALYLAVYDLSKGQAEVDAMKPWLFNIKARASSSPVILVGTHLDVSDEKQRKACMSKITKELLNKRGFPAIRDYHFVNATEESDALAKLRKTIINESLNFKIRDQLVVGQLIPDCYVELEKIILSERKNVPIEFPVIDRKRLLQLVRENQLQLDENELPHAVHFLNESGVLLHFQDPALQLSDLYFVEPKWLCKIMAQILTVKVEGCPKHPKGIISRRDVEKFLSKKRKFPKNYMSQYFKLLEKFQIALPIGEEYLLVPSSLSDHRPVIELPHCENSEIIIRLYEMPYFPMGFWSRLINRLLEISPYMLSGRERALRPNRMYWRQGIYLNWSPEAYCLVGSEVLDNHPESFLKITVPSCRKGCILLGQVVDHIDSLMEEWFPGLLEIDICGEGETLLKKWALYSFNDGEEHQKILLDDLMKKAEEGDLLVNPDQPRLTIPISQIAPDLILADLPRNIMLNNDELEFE
Text: Proximity biotinylation of LRRK2. To purify LRRK2 dimers, we relied on the proximity biotinylation technique recently described (E. Leandrou et al., Kinase activity of mutant LRRK2 manifests differently in hetero-dimeric vs. homo-dimeric complexes. Biochem J 476, 559-579 (2019); and M. Fernandez-Suarez, T. S. Chen, A. Y. Ting, Protein-protein interaction detection in vitro and in cells by proximity biotinylation. J Am Chem Soc 130, 9251-9253 (2008)). Briefly, two cDNAs were created encoding LRRK2 fusions with biotin ligase (BirA; N-term, Flag-tagged) and an acceptor peptide (AP, N-term; c-Myc tagged), and over-expressed in HEK293T cells grown in biotin-depleted medium (OptiMEM+2% FBS). The following day, the cells were treated with the indicated concentrations of the stapled peptides: LRIP4 and LCIP1. Stock peptides, fluorescently tagged, were diluted in serum-free medium, and added every 24 hours after transfection. After 48 hours following initiation of treatment (i.e. 72 hr of total expression), the cells were extensively washed in PBS, given a brief biotin pulse (50 μM, 5 min, 37° C.), followed by another 3× washes in PBS, centrifuged and the pellet snap frozen in a dry-ice/MeOH bath. Following lysis, extracts were diluted in TBST/BSA (10 mM Tris HCl, pH 7.6; 100 mM NaCl; 0.1% Triton X-100; 1% BSA) and 2.5 μg of protein loaded in parallel ELISA plates, coated with streptavidin (SA; to capture biotinylated LRRK2 dimers) and anti-LRRK2 (to quantify LRRK2 over-expression). To detect and quantify dimeric LRRK2, SA-coated plates were incubated with HRP-conjugated anti-Flag antibodies (1 hour, room temperature). Since the biotin tag is only present on AP-LRRK2 fusions, and the flag epitope tag is located on the BirA-LRRK2 fusion, by using HRP-Flag as our detector reagent, we are specifically labeling dimeric LRRK2 present in the ELISA plates. On the parallel anti-LRRK2 coated plates (clone c41-2), total over-expressed LRRK2 was quantified using HRP-LRRK2 antibodies (clone N241) and used to normalize the relative amounts of dimeric LRRK2. The following LRRK2 dimers were assessed: WT/WT homodimers, WT/G2019S, and G2019S/G2019S homodimers.
In this assay, HEK293T cells expressing either wild-type or G2019S mutants of LRRK2 fusions, either with the biotin ligase BirA or the acceptor peptide AP, were treated with increasing concentrations (0.1, 1, and 10 μM) of each fluorescently labeled peptide.

LRRK2 dimerization = molecular target: T1, LRRK2 dimerization (Homo sapiens, UniProt Q5S007); experiment: In vitro dimerization assay (co-immunoprecipitation of GFP- and Strep-tagged LRRK2); format: biochemical; settings: 10 μM peptide overnight, HEK293 lysates
T1 construct: co-transfecting HEK293 cells with GFP-tagged and strep-tagged full-length LRRK2; expressed in transfected cells; host or cells: HEK293
T1 sequence (Q5S007 whole entry): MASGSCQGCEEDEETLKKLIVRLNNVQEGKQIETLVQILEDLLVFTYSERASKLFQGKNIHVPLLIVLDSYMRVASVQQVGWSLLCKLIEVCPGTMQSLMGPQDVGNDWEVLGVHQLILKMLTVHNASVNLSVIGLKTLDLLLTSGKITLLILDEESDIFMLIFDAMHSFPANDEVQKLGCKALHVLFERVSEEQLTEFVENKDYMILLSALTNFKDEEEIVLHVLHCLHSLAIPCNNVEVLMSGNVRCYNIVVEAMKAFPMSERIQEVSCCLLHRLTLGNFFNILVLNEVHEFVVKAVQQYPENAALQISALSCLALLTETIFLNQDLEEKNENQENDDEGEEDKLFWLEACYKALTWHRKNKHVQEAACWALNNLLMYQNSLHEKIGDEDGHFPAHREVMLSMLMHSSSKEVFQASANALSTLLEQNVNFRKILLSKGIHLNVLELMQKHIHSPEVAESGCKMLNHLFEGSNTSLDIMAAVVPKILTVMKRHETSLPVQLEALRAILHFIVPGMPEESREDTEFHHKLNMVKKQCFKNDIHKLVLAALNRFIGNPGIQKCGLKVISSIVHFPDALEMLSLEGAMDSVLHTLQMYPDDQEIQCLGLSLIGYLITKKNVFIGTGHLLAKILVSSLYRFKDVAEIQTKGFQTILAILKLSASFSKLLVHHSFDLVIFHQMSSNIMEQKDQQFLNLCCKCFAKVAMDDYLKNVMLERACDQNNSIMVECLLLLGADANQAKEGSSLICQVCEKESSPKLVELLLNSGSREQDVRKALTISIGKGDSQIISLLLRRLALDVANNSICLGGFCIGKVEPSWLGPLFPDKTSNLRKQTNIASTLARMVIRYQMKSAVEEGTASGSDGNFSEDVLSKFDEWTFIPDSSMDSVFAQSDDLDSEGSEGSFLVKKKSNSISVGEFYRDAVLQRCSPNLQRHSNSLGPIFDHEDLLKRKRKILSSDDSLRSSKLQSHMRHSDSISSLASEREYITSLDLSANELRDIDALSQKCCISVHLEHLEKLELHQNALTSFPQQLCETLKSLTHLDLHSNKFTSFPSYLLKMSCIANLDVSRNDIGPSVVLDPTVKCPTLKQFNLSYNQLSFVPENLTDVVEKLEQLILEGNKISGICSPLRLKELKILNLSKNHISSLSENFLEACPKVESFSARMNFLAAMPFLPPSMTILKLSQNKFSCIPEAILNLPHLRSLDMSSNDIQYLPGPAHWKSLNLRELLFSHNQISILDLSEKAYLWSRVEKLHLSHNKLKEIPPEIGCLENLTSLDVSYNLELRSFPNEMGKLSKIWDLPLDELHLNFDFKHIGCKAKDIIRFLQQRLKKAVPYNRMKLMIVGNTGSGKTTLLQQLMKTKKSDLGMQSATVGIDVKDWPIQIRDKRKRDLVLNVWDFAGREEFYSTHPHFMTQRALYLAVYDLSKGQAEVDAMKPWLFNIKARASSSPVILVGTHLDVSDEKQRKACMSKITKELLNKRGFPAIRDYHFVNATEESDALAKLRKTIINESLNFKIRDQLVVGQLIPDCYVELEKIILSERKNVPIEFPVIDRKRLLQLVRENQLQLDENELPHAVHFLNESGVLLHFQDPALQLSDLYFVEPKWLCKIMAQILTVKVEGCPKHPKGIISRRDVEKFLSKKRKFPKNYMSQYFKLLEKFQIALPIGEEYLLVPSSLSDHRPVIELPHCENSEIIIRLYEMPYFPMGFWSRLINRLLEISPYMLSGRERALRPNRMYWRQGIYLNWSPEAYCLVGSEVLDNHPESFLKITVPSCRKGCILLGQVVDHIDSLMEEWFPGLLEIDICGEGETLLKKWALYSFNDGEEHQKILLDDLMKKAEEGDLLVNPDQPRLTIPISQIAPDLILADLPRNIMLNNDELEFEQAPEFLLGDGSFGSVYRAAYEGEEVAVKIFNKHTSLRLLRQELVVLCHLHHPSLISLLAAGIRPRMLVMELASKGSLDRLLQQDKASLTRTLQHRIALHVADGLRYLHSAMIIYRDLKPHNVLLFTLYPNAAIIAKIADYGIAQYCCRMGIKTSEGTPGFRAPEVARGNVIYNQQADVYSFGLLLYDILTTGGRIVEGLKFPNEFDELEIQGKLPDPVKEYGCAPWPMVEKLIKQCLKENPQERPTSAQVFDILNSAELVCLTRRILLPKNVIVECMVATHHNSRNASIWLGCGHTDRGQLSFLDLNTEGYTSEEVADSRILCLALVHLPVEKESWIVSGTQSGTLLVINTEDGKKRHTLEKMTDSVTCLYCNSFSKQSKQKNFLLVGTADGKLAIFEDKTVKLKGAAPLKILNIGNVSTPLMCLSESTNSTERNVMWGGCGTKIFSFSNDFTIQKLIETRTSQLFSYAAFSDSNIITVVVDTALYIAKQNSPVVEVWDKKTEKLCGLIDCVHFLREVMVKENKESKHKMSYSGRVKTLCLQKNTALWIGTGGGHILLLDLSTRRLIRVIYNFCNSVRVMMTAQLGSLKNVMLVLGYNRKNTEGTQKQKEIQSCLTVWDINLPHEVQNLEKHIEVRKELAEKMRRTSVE
Experimental: In vitro dimerization assay. HEK293 cells were co-transfected using JetPEI reagent (Polyplus transfection) with pcDNA3.1_GFP.LRRK2 and pDEST(N)SF.LRRK2. Cells were cultivated for 48 hours. The cells were then lysed with 200 μL ice-cold lysis buffer (10 mM Tris/HCl pH 7.5; 150 mM NaCl; 0.5 mM EDTA; 0.5% NP-40), complete EDTA-free protease inhibitor cocktail (Sigma-Aldrich Cat #11836170001) and Protease Inhibitor Cocktail, Sigma (cat. no. P-2714). The mixture was incubated and rotated on ice for 30 minutes with extensively pipetting every 10 minutes. Lysate was cleared by centrifugation for 10 min at 14000 g for 10 min at 4° C. The supernatant was transferred to a precooled tube and 300 μL dilution buffer (same as lysis buffer without NP-40) was added to the lysate. Peptides were added to a final concentration of 10 μM and the mixture was allowed to rotate at 4° C. overnight. GFP-LRRK2 was immunoprecipitated with Magnetic GFP nanotrap beads (ChromoTek). […] The membranes were coated with enhanced chemiluminescent (ECL) reagent (WesternSure PREMIUM, Li-COR biosciences), and proteins were detected by C-Digit Imaging System (Li-COR Biosciences).
To determine whether LCIP1 and LRIP4 could effectively disrupt LRRK2 dimerization, we monitored disruption of dimerization using two different tagged versions of LRRK2. […]

[2] = tested on: endogenous LRRK2 kinase activity as Rab10 phosphorylation; experiment: Rab10 phosphorylation in untransfected A549 cells; format: cell-based; settings: 10 μM
Text: To test whether disruption of LRRK2 dimerization can also attenuate Rab phosphorylation, a hyperactive LRRK2 mutant (R1441G) and Rab29 were overexpressed in HEK293T cells (Z. Liu et al., LRRK2 phosphorylates membrane-bound Rabs and is activated by GTP-bound Rab7L1 to promote recruitment to the trans-Golgi network. Hum Mol Genet 27, 385-395 (2018); and E. Purlyte et al., Rab29 activation of the Parkinson's disease-associated LRRK2 kinase. The EMBO Journal 37, 1-18 (2018)). Overexpression of Rab29 induces recruitment of LRRK2 to the trans-golgi network (TGN) and activates it there. After 24-hour transfection, cells were then treated with 10 μM peptide for 15 hours. […] To test the effect of the dimerization inhibitors on endogenous LRRK2 function, we performed a similar experiment using non-transfected A549 cells which natively express detectable levels of both LRRK2 and Rab10.

Row | Substance | LRRK2 dimerization in cells (FIG. 8) [1] | LRRK2 dimerization, wild-type homodimers and wild-type/G2019S heterodimers [1] | LRRK2 dimerization (Strep-LRRK2 co-precipitated with GFP-LRRK2) (LRRK2 dimerization) | LRRK2 dimerization, G2019S/G2019S homodimers and G2019S/wild-type heterodimers ([1]; HEK293(T) cells, 10 mM peptide as printed) | Rab10 phosphorylation by endogenous LRRK2 [2]
1 | COR-domain stapled peptide formed from SEQ ID NO. 16 KGEGEXLLKXWK, X = (S)-2-(4′-pentenyl)alanine; PEG3 linker, FAM or biotin label (hydrocarbon staple; PEG3 linker; FAM or biotin; COR domain peptide; (6)..(6) Xaa is (S)-2-(4′-pentenyl)alanine; (10)..(10) Xaa is (S)-2-(4′-pentenyl)alanine) [LCIP1] | failed to consistently lead to a reduction in LRRK2 dimerization; also recorded: no statistically significant effect on dimerization | no statistically significant effects on dimerization | reduced the co-immunoprecipitation of the two LRRK2 proteins; also recorded: able to disrupt LRRK2 dimerization; also recorded: reduced dimerization; also recorded: inhibitory effect on LRRK2 | – | –
2 | Roc-domain stapled peptide formed from SEQ ID NO. 6 DEKQRKAC(Nle)SKITKEXLNKX, X = (S)-2-(4′-pentenyl)alanine; PEG3 linker, FAM or biotin label (DEKQRKACXSKITKEXLNKX; hydrocarbon staple; Nle; PEG3 linker; FAM or biotin; ROC domain petide; (9)..(9) Xaa is norleucine; (16)..(16) Xaa is (S)-2-(4′-pentenyl)alanine; (20)..(20) Xaa is (S)-2-(4′-pentenyl)alanine) [LRIP4] | effectively disrupts LRRK2 dimerization in cells | inhibit dimerization of both wild-type LRRK2 homodimers and wild-type/G2019S LRRK2 heterodimers | reduced the co-immunoprecipitation of the two LRRK2 proteins; also recorded: able to disrupt LRRK2 dimerization with LRIP4 having the most pronounced effect; also recorded: reduced dimerization; also recorded: inhibitory effect on LRRK2 | statistically significant reduction in both G2019S/G2019S and G2019S/wild-type LRRK2 dimers; also recorded: inhibit dimerization of both wild-type/G2019S LRRK2 heterodimers or G2019S LRRK2 homodimers | significant reduction in phosphorylation of Rab10; also recorded: inhibition of Rab10 phosphorylation
